Measurements from patent US5440016A, “Peptides of the formula (KFmoc) ZZZ and their uses” (priority 1993, dated 1995).
pIC50: −log10 of the molar value. Square brackets hold non-standard residues; d marks the D form. Ends that are not written are not given here. Peptide text beside a SMILES is read from it.

What was measured:
[1] = biological target: T1, trypsin (from bovine pancreas) (Bos taurus, UniProt P00760); test: Trypsin inhibition assay; type: biochemical; conditions: trypsin concentration of 193 nM; substrate N-alpha-benzoyl-DL-arginine-p-nitroanilide; read-out: IC50, trypsin inhibiting activity
T1 construct: trypsin (from bovine pancreas, 8,600 units/mg solid); from tissue; host or cells: bovine pancreas
T1 sequence (P00760 24-246): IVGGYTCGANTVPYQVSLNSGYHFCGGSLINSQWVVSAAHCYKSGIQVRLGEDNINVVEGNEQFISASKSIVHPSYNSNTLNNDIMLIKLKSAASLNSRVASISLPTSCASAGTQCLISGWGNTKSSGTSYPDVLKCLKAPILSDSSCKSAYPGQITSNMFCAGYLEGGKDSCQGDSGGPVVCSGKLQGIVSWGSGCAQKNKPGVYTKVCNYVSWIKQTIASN
Protocol: The assay was performed in a 96-well assay plate, 15 μl trypsin (from bovine pancreas, 8,600 units/mg solid) solution (0.05 mg/ml 0.02 M HCl), 50 μl peptide solution (1 to 3 mM in water), and 100 μl 0.1 M Tris-buffer containing 25 mM CaCl2 (pH 7.8) were mixed in the wells of the assay plate. After incubation for 30 minutes, 100 μl substrate solution (N^α -benzoyl-DL-arginine-p-nitroanilide, 2.3 mM in water) was added. After 30 minutes, absorbances were read at 405 nm using a Titertek multichannel photometer, and expressed as a percentage of the control (well without peptide). The values obtained with serial dilutions of the peptide solutions were used to determine the IC50 values (concentration neccessary for 50% inhibition).

[2] = tested on: Escherichia coli ATCC 25922; conditions: Tables 22-23
Protocol: (§1) Escherichia coli ATCC 25922 and P. aeruginosa ATCC 27853 were used as Gram-negative (-) and Staphylococcus aureus ATCC 29213 as Gram-positive (+) bacteria. Bacteria were grown overnight at 37° C. in Mueller-Hinton (MH) broth. This culture was reinoculated and incubated at 37° C. to reach the exponential phase of bacteria growth, i.e., a final bacterial suspension containing 10^5 to 5×10^5 colony-forming units (CFU)/ml. The concentration of cells was established by plating 100 μl of different dilutions of the culture solution (e.g., 10^-2, 10^-3 and 10^-4) onto solid agar plates.
(§2) Following an overnight incubation at 37° C., the CFU thus formed were counted on each agar plate. In 96-well tissue culture plates, as control blanks, eight wells per plate contained only medium, while as a positive growth control, eight other wells contained medium plus cells.
(§3) The plates were incubated overnight at 37° C., and the optical density (OD) determined at 620 nm after different times of incubation.

[3] = tested on: Streptococcus sanguis ATCC 10556; conditions: Tables 22-23
[4] = tested on: Staphylococcus aureus ATCC 29213; conditions: Tables 22-23
Protocol: as §1, §2, §3

[5] = tested on: Human red blood cells (RBCs); test: Hemolytic activity; type: cell-based; conditions: at 100 μg/ml, Tables 22-23
P. aeruginosa ATCC 27853 = test: Antimicrobial assay, P. aeruginosa; conditions: Tables 22-23
Protocol: as §1, §2, §3

[6] = tested on: Candida albicans ATCC 10231; conditions: Tables 22-23

Compound | pIC50 [1] | IC50 (μg/ml) against E. coli [2] [µg/mL] | IC50 (μg/ml) against S. sanguis [3] [µg/mL] | IC50 (μg/ml) against S. aureus [4] [µg/mL] | % hemolysis at 100 μg/ml [5] [%] | IC50 (μg/ml) against P. aeruginosa (P. aeruginosa ATCC 27853) [µg/mL] | IC50 (μg/ml) against C. albicans [6] [µg/mL]
CC(=O)N[C@H](CCCNC(=N)N)C(=O)N[C@H](Cc1ccc(O)cc1)C(=O)N[C@H](CCCNC(=N)N)C(=O)N1CCC[C@@H]1C(=O)N[C@H](Cc1c[nH]c2ccccc12)C(=O)N[C@H](CS)C(N)=O [Ac-ryrpwc-NH2] (Ac-[dR][dY][dR][dP][dW][dC]-NH2) | 3.87 | – | – | – | – | – | –
CC(=O)N[C@H](CCCNC(=N)N)C(=O)N[C@H](Cc1ccc(O)cc1)C(=O)N[C@H](CCCNC(=N)N)C(=O)N1CCC[C@@H]1C(=O)N[C@H](Cc1c[nH]c2ccccc12)C(=O)N1CCC[C@@H]1C(N)=O [Ac-ryrpwp-NH2] (Ac-[dR][dY][dR][dP][dW][dP]-NH2) | 4.21 | – | – | – | – | – | –
CC(=O)N[C@H](CCCNC(=N)N)C(=O)N[C@H](Cc1ccc(O)cc1)C(=O)N[C@H](CCCNC(=N)N)C(=O)N1CCC[C@@H]1C(=O)N[C@H](Cc1c[nH]c2ccccc12)C(=O)N[C@@H](C(N)=O)[C@H](C)O [Ac-ryrpwt-NH2] (Ac-[dR][dY][dR][dP][dW][dT]-NH2) | 3.85 | – | – | – | – | – | –
CC(=O)N[C@H](CCCNC(=N)N)C(=O)N[C@H](Cc1ccc(O)cc1)C(=O)N[C@H](CCCNC(=N)N)C(=O)N1CCC[C@@H]1C(=O)N[C@H](Cc1c[nH]c2ccccc12)C(=O)N[C@@H](C(N)=O)C(C)C [Ac-ryrpwv-NH2] (Ac-[dR][dY][dR][dP][dW][dV]-NH2) | 3.88 | – | – | – | – | – | –
CC(=O)N[C@H](CCCNC(=N)N)C(=O)N[C@H](Cc1ccc(O)cc1)C(=O)N[C@H](CCCNC(=N)N)C(=O)N1CCC[C@@H]1C(=O)N[C@H](Cc1c[nH]c2ccccc12)C(=O)N[C@H](Cc1c[nH]c2ccccc12)C(N)=O [Ac-ryrpww-NH2] (Ac-[dR][dY][dR][dP][dW][dW]-NH2) | 3.90 | – | – | – | – | – | –
Ac-RRWWCV-NH2 [Ac-RRWWCV-NH2] | – | 17 to 18 | 41 to 46 | 19 to 21 | 0.0 | 33 to 44 | 103 to 174
Ac-RRWWCW-NH2 [Ac-RRWWCW-NH2] | – | 58 to 61 | 55 to 78 | 41 to 43 | 14 | 60 to 88 | 151 to 166
Ac-RRWWCY-NH2 [Ac-RRWWCY-NH2] | – | 20 to 21 | 59 to 60 | 12 to 28 | 5.8 | 97 to 110 | 184 to 212
Cecropin A (KWKLFKKIEKVGQNIRDGIIKAGPAVAVVGQATQIAK; ends and bridges not checked; UniProt P01507 27-63, looked up) [reference compound] | – | 1 to 2 | 337 to 400 | > 500 | 0.0 | 5 to 6 | 81 to 88
